Measured values: article PMC6753678, “Fueling Open Innovation for Malaria Transmission-Blocking Drugs: Hundreds of Molecules Targeting Early Parasite Mosquito Stages” (Frontiers in Microbiology, 2019)

How the values were obtained:
[1] = tested on: P. falciparum female gametocytes; set-up: method as in Miguel-Blanco et al 2017; conditions: ref Miguel-Blanco et al 2017; read-out: Pf FGAA IC50; cited from earlier work
HepG2 cells = test: HepG2 cytotoxicity assay; conditions: unified HepG2 cytotoxicity across the three screens
Procedure, shortened: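 Cells are plated at 2,500 per well on compound-treated plates in MEM containing 10% fetal bovine serum and 1% NEAA, then incubated 48 h at 37°C.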

[2] = tested on: P. falciparum female gametocytes; test: P. falciparum female gametogenesis assay (Pf FGAA); conditions: 1: YES; 0: NO; >10-fold selectivity over cytotox

SMILES | IC50 [1] [nM] | Unified cytotox (HepG2 cells) [µM] | Is compound selective in assay? Pf FGAA active? [2]
Nc1ccc2[nH]cc(C3CCN(CCC4CCN(C(=O)/C=C/c5ccc(Cl)c(Cl)c5)CC4)CC3)c2n1 [TCMDC-140062] | 1290 | 8.13 | 0 (0: NO)
Nc1ccc2[nH]cc(C3CCN(CC4CCC(NC(=O)/C=C/c5ccc(Cl)c(Cl)c5)CC4)CC3)c2n1 (stereo not drawn) [TCMDC-140064] | 690 | 12.59 | 1 (1: YES)
O=C(/C=C/c1ccc(Cl)c(Cl)c1)N1CCC(CN2CCC(c3c[nH]c4ccncc34)CC2)CC1 [TCMDC-140074] | 870 | 5.32 | 0 (0: NO)
CC(=O)Nc1ccc2[nH]cc(C3CCN(CC4CCN(C(=O)/C=C/c5ccc(Cl)c(Cl)c5)CC4)CC3)c2n1 [TCMDC-140112] | 1380 | 12.59 | 0 (0: NO)
CC(=O)Nc1ccc2[nH]cc(C3CCN(CC4CCC(NC(=O)/C=C/c5ccc(Cl)c(Cl)c5)CC4)CC3)c2n1 (stereo not drawn) [TCMDC-140114] | 1740 | 13.49 | 0 (0: NO)
Nc1cc2c(C3CCN(CC4CCN(C(=O)/C=C/c5ccc(Cl)c(Cl)c5)CC4)CC3)c[nH]c2cn1 [TCMDC-140133] | 1970 | 6.24 | 0 (0: NO)
COc1ccc(-c2ccccc2)cc1NC(=S)NC1CCC(CN2CCC(c3c[nH]c4ccccc34)CC2)CC1 (stereo not drawn) [TCMDC-140182] | 1650 | 5.50 | 0 (0: NO)
CCN(CC)CCN(Cc1ccc(-c2ccc(Cl)cc2)cc1)C(=O)Cn1cc(CN(C)C)c(=O)nc1SCc1ccc(F)cc1 [TCMDC-140406] | 1380 | 6.61 | 0 (0: NO)
CN1CCN(CCCNCc2ccccc2-c2cccc(CNCc3ccc4c(c3)OCO4)c2)CC1.O=C(O)C(F)(F)F [TCMDC-140476] | 1640 | 1.51 | 0 (0: NO)
N=C(N)Nc1nc(-c2ccc(NCc3ccc(CNc4cccc(-c5csc(NC(=N)N)n5)c4)cc3)cc2)cs1 [TCMDC-140699] | 900 | 4.79 | 0 (0: NO)
CN1CCC=C(C(=O)NCC(C)(C)c2nc(-c3ccc(Cl)c(O)c3)c(-c3ccncc3)[nH]2)C1.Cl [TCMDC-140700] | 1910 | 13.36 | 0 (0: NO)
CCN(CC)CCN(Cc1ccc(-c2ccc(C(F)(F)F)cc2)cc1)C(=O)Cn1cc(Cc2cnn(C)c2)c(=O)nc1/C=C/c1ccc(F)cc1.O=C(O)C(O)C(O)C(=O)O [TCMDC-140741] | 1210 | 13.81 | 1 (1: YES)
CN(C)CCOc1ccc(NC(=O)NC(C)(C)c2nc(-c3ccc(Cl)c(O)c3)c(-c3ccncc3)[nH]2)cc1.Cl [TCMDC-140744] | 730 | 14.30 | 1 (1: YES)
CNCC(C)(C)c1nc(-c2ccc(Cl)c(O)c2)c(-c2ccncc2)[nH]1.Cl [TCMDC-140762] | 880 | 13.52 | 1 (1: YES)
CC(C)(C)c1ccc(CNC(=O)/C=C/c2ccc(CNC3CCNCC3)cc2)cc1 [TCMDC-140773] | 1920 | 9.47 | 0 (0: NO)
CC(C)(C)c1ccc(CNC(=O)c2cc(CNC3CCNCC3)ccc2O)cc1 [TCMDC-140775] | 2000 | 13.96 | 0 (0: NO)
CC(C)(C)c1ccc(CNC(=O)c2ccc(CNC3CCC(N)CC3)s2)cc1 (stereo not drawn) [TCMDC-140777] | 2440 | 8.95 | 0 (0: NO)
CC(C)(CNC(=O)[C@H]1CCCN1)c1nc(-c2ccc(Cl)c(O)c2)c(-c2ccncc2)[nH]1.Cl [TCMDC-141060] | 1210 | 32.74 | 1 (1: YES)

SMILES | IC50 [1] [nM] | Unified cytotox (HepG2 cells) [µM] | Is compound selective in assay? Pf FGAA active? [2]
CC(C)(CNC(=O)[C@@H]1CCCCN1)c1nc(-c2ccc(Cl)c(O)c2)c(-c2ccncc2)[nH]1.Cl [TCMDC-141079] | 1580 | 38.91 | 1 (1: YES)
CC1(CCN2CCC(c3c[nH]c4cnccc34)CC2)CCCc2c(Br)cccc2C1=O.Cl (stereo not drawn) [TCMDC-141171] | 1730 | 5.25 | 0 (0: NO)
CN1CCN(c2ccc(Nc3ncc([N+](=O)[O-])c(Nc4ccccc4O)n3)cc2)CC1.O=C(O)C(F)(F)F [TCMDC-141372] | 2010 | 1.82 | 0 (0: NO)
O=C(CCC1CCCC1)N(Cc1ccc(-c2ccc(CNCCc3ccccc3)cc2)cc1)C1CCCNC1.O=C(O)C(F)(F)F (stereo not drawn) [TCMDC-141444] | 1980 | 5.19 | 0 (0: NO)
CN1CCCC1CCNc1ncc2c(-c3ccc(NC(=O)Nc4cc(C(F)(F)F)ccc4F)c(F)c3)nn(C)c2n1.O=C(O)C(F)(F)F (stereo not drawn) [TCMDC-141610] | 1470 | 4.62 | 0 (0: NO)
CN1CCN(CCCNc2ncc3c(-c4ccc(NC(=O)Nc5cc(C(F)(F)F)ccc5F)c(F)c4)nn(C)c3n2)CC1.O=C(O)C(F)(F)F [TCMDC-141611] | 870 | 4.90 | 0 (0: NO)
Cc1ccc(Cn2nc(Cl)c(N3CCCNCC3)cc2=O)cc1NC(=O)Nc1ccc(-c2ccccc2)cc1.O=C(O)C(F)(F)F [TCMDC-141697] | 990 | 7.25 | 0 (0: NO)
Cc1ccc(Cn2nc(Cl)c(N3CCNCC3)cc2=O)cc1NC(=O)Nc1ccc(-c2ccccc2)cc1.O=C(O)C(F)(F)F [TCMDC-141698] | 440 | 4.79 | 1 (1: YES)
Cc1c(Cn2nc(Cl)c(N3CCNCC3)cc2=O)cccc1NC(=O)Nc1ccc(-c2ccccc2)cc1.O=C(O)C(F)(F)F [TCMDC-141699] | 4910 | 4.22 | 0 (0: NO)
Cl.O=S(=O)(Nc1cc2c(cc1OCCCN1CCCCC1)CCNCC2)c1ccc(-c2ccc(Cl)cc2)cc1 [TCMDC-141753] | 2000 | 4.37 | 0 (0: NO)
CN1CCc2cc(NS(=O)(=O)c3ccc(-c4ccc(Cl)cc4)cc3)c(OCCCN3CCCCC3)cc2CC1.Cl [TCMDC-141754] | 970 | 2.23 | 0 (0: NO)
Cc1ccc(Cn2ncc(N3CCCNCC3)c(Cl)c2=O)cc1NC(=O)Nc1ccc(-c2ccccc2)cc1 [TCMDC-141924] | 1730 | 7.86 | 0 (0: NO)
Nc1nc(N)c2cc(NC(=O)c3ccc(Cl)c(Cl)c3)ccc2n1 [TCMDC-141982] | 1590 | 2.14 | 0 (0: NO)
Cl.OC(CNCCCCCCNCC(O)c1ccc(Cl)c(Cl)c1)c1ccc(Cl)c(Cl)c1 (stereo not drawn) [TCMDC-141987] | 900 | 4.27 | 0 (0: NO)
Cl.N=C1C=C(N)C(=O)c2ccccc21 [TCMDC-141992] | 11900 | 0.52 | 0 (0: NO)
CCn1c2ccccc2c2cc(C=NN=c3cc(C)[nH]c4ccccc34)ccc21 [TCMDC-142186] | 4150 | 5.82 | 0 (0: NO)
CCOc1ccc2c(=NN=Cc3cc(OC)c(OC)cc3OC)cc(C)[nH]c2c1 [TCMDC-142207] | 1220 | 12.17 | 0 (0: NO)
Cc1c(N=O)cc(C(C)(C)C)c(O)c1C(=O)Nc1ccc([N+](=O)[O-])cc1Cl [TCMDC-142233] | 1170 | 1.78 | 0 (0: NO)
